Experimental data reported in PubChem BioAssay (NCI).
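Following 48 hours of exposure in 96-well plates, responses at five concentrations were used to interpolate endpoints linearly. GI50 is the concentration that inhibits growth by half. TGI marks complete inhibition of growth.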

Experiments:
Test in all cases: NCI tumour cell line growth inhibition, 48 h
786-0 renal = tested on: 786-0 renal
A498 renal = tested on: A498 renal
A549 NSCLC = tested on: A549 NSCLC
ACHN renal = tested on: ACHN renal
BT-549 breast = tested on: BT-549 breast
CCRF-CEM leukemia = tested on: CCRF-CEM leukemia
COLO 205 colon = tested on: COLO 205 colon
DU-145 prostate = tested on: DU-145 prostate
EKVX NSCLC = tested on: EKVX NSCLC
HCC-2998 colon = tested on: HCC-2998 colon
HCT-116 colon = tested on: HCT-116 colon
HCT-15 colon = tested on: HCT-15 colon
HL-60(TB) leukemia = tested on: HL-60(TB) leukemia
HOP-62 NSCLC = tested on: HOP-62 NSCLC
HOP-92 NSCLC = tested on: HOP-92 NSCLC
HS 578T breast = tested on: HS 578T breast
HT29 colon = tested on: HT29 colon
IGROV1 ovarian = tested on: IGROV1 ovarian
K-562 leukemia = tested on: K-562 leukemia
KM12 colon = tested on: KM12 colon
LOX IMVI melanoma = tested on: LOX IMVI melanoma
M14 melanoma = tested on: M14 melanoma
MALME-3M melanoma = tested on: MALME-3M melanoma
MCF7 breast = tested on: MCF7 breast
MDA-MB-231 breast = tested on: MDA-MB-231 breast
MDA-MB-435 = tested on: MDA-MB-435
MOLT-4 leukemia = tested on: MOLT-4 leukemia
NCI-H226 lung = tested on: NCI-H226 lung
NCI-H23 lung = tested on: NCI-H23 lung
NCI-H460 lung = tested on: NCI-H460 lung
NCI-H522 lung = tested on: NCI-H522 lung
NCI/ADR-RES ovarian = tested on: NCI/ADR-RES ovarian
OVCAR-3 ovarian = tested on: OVCAR-3 ovarian
OVCAR-4 ovarian = tested on: OVCAR-4 ovarian
OVCAR-5 ovarian = tested on: OVCAR-5 ovarian
OVCAR-8 ovarian = tested on: OVCAR-8 ovarian
PC-3 prostate = tested on: PC-3 prostate
RPMI-8226 leukemia = tested on: RPMI-8226 leukemia
RXF 393 renal = tested on: RXF 393 renal
SF-268 CNS = tested on: SF-268 CNS
SF-295 CNS = tested on: SF-295 CNS
SF-539 CNS = tested on: SF-539 CNS
SK-MEL-2 melanoma = tested on: SK-MEL-2 melanoma
SK-MEL-28 melanoma = tested on: SK-MEL-28 melanoma
SK-MEL-5 melanoma = tested on: SK-MEL-5 melanoma
SK-OV-3 ovarian = tested on: SK-OV-3 ovarian
SN12C renal = tested on: SN12C renal
SNB-19 CNS = tested on: SNB-19 CNS
SNB-75 CNS = tested on: SNB-75 CNS
SR leukemia = tested on: SR leukemia
SW-620 colon = tested on: SW-620 colon
T-47D breast = tested on: T-47D breast
TK-10 renal = tested on: TK-10 renal
U251 CNS = tested on: U251 CNS
UACC-257 melanoma = tested on: UACC-257 melanoma
UACC-62 melanoma = tested on: UACC-62 melanoma
UO-31 renal = tested on: UO-31 renal

COc1ccc(C2C(C#N)=C(N)Oc3c2sc2c(F)cccc32)cc1 (centres undefined)
GI50 (786-0 renal): 3.34 µM
TGI (786-0 renal): 13 µM
GI50 (A498 renal): 2.1 µM
TGI (A498 renal): 15.6 µM
GI50 (A549 NSCLC): 3.12 µM
TGI (A549 NSCLC): 22.3 µM
GI50 (ACHN renal): 6.08 µM
TGI (ACHN renal): 21.4 µM
GI50 (BT-549 breast): 4.65 µM
TGI (BT-549 breast): 24 µM
GI50 (CCRF-CEM leukemia): 1.7 µM
TGI (CCRF-CEM leukemia): 12.5 µM
GI50 (COLO 205 colon): 2.62 µM
TGI (COLO 205 colon): 8.18 µM
GI50 (DU-145 prostate): 2.96 µM
TGI (DU-145 prostate): 11.4 µM
GI50 (EKVX NSCLC): 4.7 µM
TGI (EKVX NSCLC): 22.5 µM
GI50 (HCC-2998 colon): 3.04 µM
TGI (HCC-2998 colon): 14 µM
GI50 (HCT-116 colon): 2.7 µM
TGI (HCT-116 colon): 12.1 µM
GI50 (HCT-15 colon): 1.73 µM
TGI (HCT-15 colon): 12.4 µM
GI50 (HL-60(TB) leukemia): 1.75 µM
TGI (HL-60(TB) leukemia): 6.5 µM
GI50 (HOP-62 NSCLC): 1.75 µM
TGI (HOP-62 NSCLC): 15.9 µM
GI50 (HOP-92 NSCLC): 4.32 µM
TGI (HOP-92 NSCLC): 21.2 µM
GI50 (HS 578T breast): 2.81 µM
TGI (HS 578T breast): 27 µM
GI50 (HT29 colon): 3.23 µM
TGI (HT29 colon): 11.1 µM
GI50 (IGROV1 ovarian): 2.9 µM
TGI (IGROV1 ovarian): 19.5 µM
GI50 (K-562 leukemia): 0.493 µM
TGI (K-562 leukemia): 18.2 µM
GI50 (KM12 colon): 1.62 µM
TGI (KM12 colon): 17.5 µM
GI50 (LOX IMVI melanoma): 2.4 µM
TGI (LOX IMVI melanoma): 12.4 µM
GI50 (M14 melanoma): 1.34 µM
TGI (M14 melanoma): 4.54 µM
GI50 (MALME-3M melanoma): 11.6 µM
TGI (MALME-3M melanoma): 26.3 µM
GI50 (MCF7 breast): 0.711 µM
TGI (MCF7 breast): 13.6 µM
GI50 (MDA-MB-231 breast): 3.77 µM
TGI (MDA-MB-231 breast): 20.3 µM
GI50 (MDA-MB-435): 0.315 µM
TGI (MDA-MB-435): 1.4 µM
GI50 (MOLT-4 leukemia): 2.62 µM
TGI (MOLT-4 leukemia): 14 µM
GI50 (NCI-H226 lung): 14 µM
TGI (NCI-H226 lung): 32.6 µM
GI50 (NCI-H23 lung): 3.6 µM
TGI (NCI-H23 lung): 21.8 µM
GI50 (NCI-H460 lung): 2.59 µM
TGI (NCI-H460 lung): 11.9 µM
GI50 (NCI-H522 lung): 0.799 µM
TGI (NCI-H522 lung): 6.35 µM
GI50 (NCI/ADR-RES ovarian): 0.881 µM
TGI (NCI/ADR-RES ovarian): 5.96 µM
GI50 (OVCAR-3 ovarian): 1.38 µM
TGI (OVCAR-3 ovarian): 4.94 µM
GI50 (OVCAR-4 ovarian): 8.95 µM
TGI (OVCAR-4 ovarian): 31 µM
GI50 (OVCAR-5 ovarian): 8.53 µM
TGI (OVCAR-5 ovarian): 27.6 µM
GI50 (OVCAR-8 ovarian): 3.11 µM
TGI (OVCAR-8 ovarian): 14.5 µM
GI50 (PC-3 prostate): 2.36 µM
TGI (PC-3 prostate): 11.7 µM
GI50 (RPMI-8226 leukemia): 2.66 µM
TGI (RPMI-8226 leukemia): 12.5 µM
GI50 (RXF 393 renal): 1.81 µM
TGI (RXF 393 renal): 5.77 µM
GI50 (SF-268 CNS): 3.95 µM
TGI (SF-268 CNS): 19.6 µM
GI50 (SF-295 CNS): 2.1 µM
TGI (SF-295 CNS): 11.5 µM
GI50 (SF-539 CNS): 2.13 µM
TGI (SF-539 CNS): 6.24 µM
GI50 (SK-MEL-2 melanoma): 3 µM
TGI (SK-MEL-2 melanoma): 18.6 µM
GI50 (SK-MEL-28 melanoma): 8.25 µM
TGI (SK-MEL-28 melanoma): 23.2 µM
GI50 (SK-MEL-5 melanoma): 3.93 µM
TGI (SK-MEL-5 melanoma): 16.3 µM
GI50 (SK-OV-3 ovarian): 4.35 µM
TGI (SK-OV-3 ovarian): 36.7 µM
GI50 (SN12C renal): 3.94 µM
TGI (SN12C renal): 16.5 µM
GI50 (SNB-19 CNS): 2.99 µM
TGI (SNB-19 CNS): 16.8 µM
GI50 (SNB-75 CNS): 2.42 µM
TGI (SNB-75 CNS): 14.5 µM
GI50 (SR leukemia): 0.706 µM
TGI (SR leukemia): 14.2 µM
GI50 (SW-620 colon): 1.82 µM
TGI (SW-620 colon): 15.6 µM
GI50 (T-47D breast): 2.57 µM
TGI (T-47D breast): 25.9 µM
GI50 (TK-10 renal): 5.69 µM
TGI (TK-10 renal): 23.5 µM
GI50 (U251 CNS): 2.74 µM
TGI (U251 CNS): 11.8 µM
GI50 (UACC-257 melanoma): 14.6 µM
TGI (UACC-257 melanoma): 88.8 µM
GI50 (UACC-62 melanoma): 2.41 µM
TGI (UACC-62 melanoma): 18.9 µM
GI50 (UO-31 renal): 4.66 µM
TGI (UO-31 renal): 17.7 µM
